Results published in patent US20240317727A1 (Duke University, priority 2018, published 2024).
Where two headings read alike, the source gives them in different places.

Tests used:
[1] = tested on: C4-2 prostate cancer cells; experiment: C4-2 cell proliferation, Cell Titre Glo; type: cell-based; settings: Homo sapiens, 48-hour period, 9-point dilution series, read-out: Cell Viability IC50
Method: Next, cell viability of C4-2 prostate cancer cells was determined. C4-2 prostate cancer cells were grown in RMPI-1640 (no L-glutamine, Gibco 21870076) supplemented with 10% fetal bovine […] (non-heat-inactivated, Cytiva Hyclone SH30071.03). […] A 9-point dilution series was used to assess the ability of each compound to inhibit the growth of C4-2 prostate cancer cells over a 48-hour period, as compared to negative control solvent, DMSO. Cell proliferation was measured by the Cell Titre Glo assay using 384 well microtiter plate reader to quantitate luminescence. The IC50 was determined from the values obtained.

[2] = target: T1, purified recombinant human HSF1 (HSF1 DNA binding domain) (Homo sapiens, UniProt Q00613); experiment: Melting temperature of HSF1 DBD with HSF1 degrader compounds (Sypro orange); settings: read-out: ΔTm (° C.)
T1 sequence (Q00613 15-120): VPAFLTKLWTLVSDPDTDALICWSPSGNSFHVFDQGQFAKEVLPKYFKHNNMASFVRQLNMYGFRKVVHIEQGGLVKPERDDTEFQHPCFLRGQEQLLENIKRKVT
Method: The melting temperature (ΔTm) for purified recombinant human HSF1 (HSF1 DNA binding domain) was determined in the presence of HSF1 degrader compounds shown in Table 5 and compared to the solvent DMSO. Sypro orange dye was added to the HSF1 DBD (5 micromolar final concentration) in buffer, mixed and distributed to wells in 384 well microtiter plates. HSF1 degrader compound (12.5 micromolar) or DMSO solvent was added to three replicate wells per compound concentration, mixed and plates loaded into a Quant Studio thermnocycler and run on a temperature gradient from 25° C. to 85° C. with increments of 0.5° C. steps. Melting curves were obtained and analyzed using the ThermnoFisher Shift Software 1.4 fitted with a Boltzmann equation to determine the change in melting temperature of the protein in the presence of DMSO as compared to compound. The difference in the melting temperature under these two conditions was assigned as the change in melting temperature of ΔTm.

[3] = target: T2, recombinant HSF1 DNA-binding domain (DBD) (Homo sapiens, UniProt Q00613); experiment: Differential Scanning Fluorimetry (DSF), HSF1 DBD melting temperature; settings: Table 3; 5 μM HSF1 DBD, 25PM Compound; positive = stabilizes, negative = destabilizes HSF1
T2 sequence (Q00613 15-120): T1 sequence (Q00613 15-120)

[4] = 12.5 micromolar compound, 5 micromolar HSF1 DBD, compared to DMSO

Row | Structure (SMILES) | IC50 [1] [µM] | ΔTm at 12.5 µM [2, 4] [°C] | ΔTm at 12.5 µM [2] [°C] | ΔTm at 25 µM [3] [°C]
1 | N#Cc1ccc(NC(=O)Nc2ccc(C#N)c(C(F)(F)F)c2)cc1C(F)(F)F [Compound 252, 1,3-bis(4-cyano-3-(trifluoromethyl)phenyl)urea] | 2.08 | – | 1.33 | –
2 | N#Cc1ccc(NC(=O)Nc2ccc(F)cc2)cc1C(F)(F)F [Compound 254, 1-(4-cyano-3-(trifluoromethyl)phenyl)-3-(4-fluorophenyl)urea] | 4.02 | – | 1.84 | –
3 | N#Cc1cccc(NC(=O)Nc2ccc3c(c2)S(=O)(=O)C=C3)n1 [Compound 267, 1-(6-cyanopyridin-2-yl)-3-(1,1-dioxidobenzo[b]thiophen-6-yl)urea] | > 10 | -0.19 | – | –
4 | N#Cc1ncc(NC(=O)Nc2ccc3c(c2)S(=O)(=O)C=C3)cn1 [Compound 269] | > 10 | 0.77 | – | –
5 | CN(C)CCc1cc(NC(=O)Nc2ccc(Cl)c(S(=O)(=O)C(F)(F)F)c2)ccc1C#N [Compound 284, 1-(4-chloro-3-((trifluoromethyl)sulfonyl)phenyl)-3-(4-cyano-3-(2-(dimethylamino)ethyl)phenyl)urea] | > 10 | – | 0.62 | –
6 | N#Cc1ccc(NC(=O)Nc2ccc(Cl)c(S(=O)(=O)C(F)(F)F)c2)cc1CN1CCOCC1 [Compound 285, 1-(4-chloro-3-((trifluoromethyl)sulfonyl)phenyl)-3-(4-cyano-3-(morpholinomethyl)phenyl)urea] | 4.81 | – | 1.23 | -7.52
7 | N#Cc1ccc(NC(=O)Nc2ccc(Cl)c(S(=O)(=O)C(F)(F)F)c2)cc1CCN1CCOCC1 [Compound 286, 1-(4-chloro-3-((trifluoromethyl)sulfonyl)phenyl)-3-(4-cyano-3-(2-morpholinoethyl)phenyl)urea] | 5.95 | – | 1.64 | -6.23
8 | N#Cc1ccc(NC(=O)Nc2ccc(CN3CCOCC3)c(S(=O)(=O)C(F)(F)F)c2)cc1 [Compound 288, 1-(4-cyanophenyl)-3-(4-(morpholinomethyl)-3-((trifluoromethyl)sulfonyl)phenyl)urea] | 8.9 | – | 2.24 | 3.27
9 | CN(C)CCc1cc(NC(=O)Nc2ccc3c(c2)S(=O)(=O)C=C3)ccc1C#N [Compound 290, 1-(4-cyano-3-(2-(dimethylamino)ethyl)phenyl)-3-(1,1-dioxidobenzo[b]thiophen-6-yl)urea] | > 10 | – | -0.3 | 3.28
10 | N#Cc1ccc(NC(=O)Nc2ccc3c(c2)S(=O)(=O)C=C3)cc1CN1CCOCC1 [Compound 291, 1-(4-cyano-3-(morpholinomethyl)phenyl)-3-(1,1-dioxidobenzo[b]thiophen-6-yl)urea] | > 10 | – | -0.44 | -4.4
11 | N#Cc1ccc(NC(=O)Nc2ccc3c(c2)S(=O)(=O)C=C3)cc1CCN1CCOCC1 [Compound 292, 1-(4-cyano-3-(2-morpholinoethyl)phenyl)-3-(1,1-dioxidobenzo[b]thiophen-6-yl)urea] | > 10 | – | -0.76 | 3.33
12 | N#Cc1ccc(NC(=O)Nc2ccc(Cl)c(S(=O)(=O)C(F)(F)F)c2)cc1OCCN1CCOCC1 [Compound 293, 1-(4-chloro-3-((trifluoromethyl)sulfonyl)phenyl)-3-(4-cyano-3-(2-morpholinoethoxy)phenyl)urea] | 6.05 | – | 1.13 | -4.19
13 | N#Cc1ccc(NC(=O)Nc2ccc(OCCN3CCOCC3)c(S(=O)(=O)C(F)(F)F)c2)cc1 [Compound 294, 1-(4-cyanophenyl)-3-(4-(2-morpholinoethoxy)-3-((trifluoromethyl)sulfonyl)phenyl)urea] | 9.82 | – | 2.24 | -9.02
14 | N#Cc1ccc(NC(=O)Nc2ccc3c(c2)S(=O)(=O)C=C3)cc1OCCN1CCOCC1 [Compound 295, 1-(4-cyano-3-(2-morpholinoethoxy)phenyl)-3-(1,1-dioxidobenzo[b]thiophen-6-yl)urea] | > 10 | – | -0.03 | –
15 | CN(C)CCc1cc(C#N)ccc1NC(=O)Nc1ccc(Cl)c(S(=O)(=O)C(F)(F)F)c1 [Compound 296, 1-(4-chloro-3-((trifluoromethyl)sulfonyl)phenyl)-3-(4-cyano-2-(2-(dimethylamino)ethyl)phenyl)urea] | > 10 | – | 0.43 | -5.21
16 | N#CC1CCC(NC(=O)Nc2ccc(Cl)c(C(F)(F)F)c2)CC1 (stereo not shown) [Compound 300, 1-(4-chloro-3-(trifluoromethyl)phenyl)-3-(4-cyanocyclohexyl)urea] | > 10 | – | -0.73 | –

Continued, in another order:

Row | IC50 [1] [µM] | ΔTm at 12.5 µM [2, 4] [°C] | Structure (SMILES) | ΔTm at 12.5 µM [2] [°C] | ΔTm at 25 µM [3] [°C]
17 | 5.57 | 2.63 | COc1cc(NC(=O)Nc2ccc(Cl)c([N+](=O)[O-])c2)ccc1C#N [Compound 241, 1-(4-chloro-3-nitrophenyl)-3-(4-cyano-3-methoxyphenyl)urea] | – | –
18 | > 10 | 3.23 | N#Cc1ccc(NC(=O)Nc2ccc3occc3c2)cc1 [Compound 246, 1-(benzofuran-5-yl)-3-(4-cyanophenyl)urea] | – | –
19 | 3.24 | 2.95 | COc1cc(NC(=O)Nc2ccc(Cl)c(S(=O)(=O)C(F)(F)F)c2)ccc1C#N [Compound 248, 1-(4-chloro-3-((trifluoromethyl)sulfonyl)phenyl)-3-(4-cyano-3-methoxyphenyl)urea] | – | –
20 | 4.56 | 1.5 | COc1cc(NC(=O)Nc2ccc3c(c2)S(=O)(=O)C=C3)ccc1C#N [Compound 249, 1-(4-cyano-3-methoxyphenyl)-3-(1,1-dioxidobenzo[b]thiophen-6-yl)urea] | – | –
21 | > 10 | 1.3 | COc1cc(NC(=O)Nc2ccc3nsnc3c2)ccc1C#N [Compound 250, 1-(benzo[c][1,2,5]thiadiazol-5-yl)-3-(4-cyano-3-methoxyphenyl)urea] | – | –
22 | > 10 | 2.06 | COc1cc(NC(=O)Nc2ccc3occc3c2)ccc1C#N [Compound 251] | – | –
23 | > 10 | 1.91 | N#Cc1ccc(NC(=O)Nc2ccc(C#N)cc2)cc1 [Compound 253, 1,3-bis(4-cyanophenyl)urea] | – | –
24 | > 10 | 2.22 | N#Cc1ccc(NC(=O)Nc2ccc(F)cc2)cc1 [Compound 255, 1-(4-cyanophenyl)-3-(4-fluorophenyl)urea] | – | –
25 | 2.29 | 1.06 | Cc1cc(NC(=O)Nc2ccc3c(c2)S(=O)(=O)C=C3)ccc1C#N [Compound 261, 1-(4-cyano-3-methylphenyl)-3-(1,1-dioxidobenzo[b]thiophen-6-yl)urea] | – | –
26 | 2.65 | 1.27 | CC(C)(C)c1cc(NC(=O)Nc2ccc3c(c2)S(=O)(=O)C=C3)ccc1C#N [Compound 264, 1-(3-(tert-butyl)-4-cyanophenyl)-3-(1,1-dioxidobenzo[b]thiophen-6-yl)urea] | – | –
27 | 7.79 | 0.39 | N#Cc1cnc(NC(=O)Nc2ccc3c(c2)S(=O)(=O)C=C3)cn1 [Compound 268, 1-(5-cyanopyrazin-2-yl)-3-(1,1-dioxidobenzo[b]thiophen-6-yl)urea] | – | –
28 | > 10 | 0.01 | N#Cc1cnc(NC(=O)Nc2ccc3c(c2)S(=O)(=O)C=C3)nc1 [Compound 270, 1-(5-cyanopyrimidin-2-yl)-3-(1,1-dioxidobenzo[b]thiophen-6-yl)urea] | – | –
29 | > 10 | 0.02 | N#Cc1ccc(NC(=O)Nc2ccc3c(c2)C=CS3(=O)=O)o1 [Compound 271, 1-(5-cyanofuran-2-yl)-3-(1,1-dioxidobenzo[b]thiophen-5-yl)urea] | – | –
30 | 5.65 | -2.3 | N#Cc1ccc(NC(=O)Nc2ccc3c(c2)S(=O)(=O)c2ccccc2-3)cc1 [Compound 277, 1-(4-cyanophenyl)-3-(5,5-dioxidodibenzo[b,d]thiophen-3-yl)urea] | – | –
31 | > 10 | 1.29 | N#Cc1ccc(NC(=O)Nc2ccc3c(c2)S(=O)(=O)CCC3)cc1 [Compound 279] | – | –
32 | > 10 | 0.1 | N#Cc1ccc(NC(=O)Nc2ccc3c(c2)C(=O)CC3)cc1 [Compound 283, 1-(4-cyanophenyl)-3-(3-oxo-2,3-dihydro-1H-inden-5-yl)urea] | – | –
33 | 8.91 | 2.6 | N#Cc1ccc(NC(=O)Nc2ccc(CCN3CCOCC3)c(S(=O)(=O)C(F)(F)F)c2)cc1 [Compound 289, 1-(4-cyanophenyl)-3-(4-(2-morpholinoethyl)-3-((trifluoromethyl)-sulfonyl)phenyl)urea] | – | 3.2
